What was measured:
Type in all cases: cell-based
[1] = system: Microdochium nivale; experiment: Efficacy of mixtures of streptimidone and CtmC, liquid culture in PDB, optical density 620 nm
[2] = system: Zymoseptoria tritici K6105; experiment: as above; details: for Emax at 1.23 ppm: K6105, Streptimidone 1.23 ppm alone (CtmC 0); for Emax at 3.7 ppm: K6105, Streptimidone 3.70 ppm alone (CtmC 0); for Emax at 11.11 ppm: K6105, Streptimidone 11.11 ppm alone (CtmC 0); for Emax at 33.33 ppm: K6105, Streptimidone 33.33 ppm alone (CtmC 0)
[3] = system: Zymoseptoria tritici K6318; experiment: as above
[4] = system: Zymoseptoria tritici K6420; experiment: as above
[5] = system: Gibberella zeae (Fusarium graminearum); experiment: microbe, parasite or virus in culture; details: read-out: % Efficacy
[6] = system: Fusarium Virguliforme K6286; experiment: Efficacy of mixtures of streptimidone and CtmC, liquid culture in PDB, optical density 620 nm
[7] = system: Fusarium Virguliforme K6285; experiment: as above
[8] = Streptimidone 0.41 ppm alone (CtmC 0)
[9] = Streptimidone 1.23 ppm alone (CtmC 0)
[10] = Streptimidone 3.70 ppm alone (CtmC 0)
[11] = Streptimidone 11.11 ppm alone (CtmC 0)
[12] = Streptimidone 33.33 ppm alone (CtmC 0)
[13] = Streptimidone 0.14 ppm alone (CtmC 0)
[14] = Streptimidone 100 ppm alone (CtmC 0)

Question: Which results are given for `C=C/C(C)=C/[C@H](C)C(=O)C[C@H](O)CC1CC(=O)NC(=O)C1` [Streptimidone]?
Answer: Emax at 0.41 ppm [1, 8]: 0%; Emax at 1.23 ppm [1, 9]: 0%; Emax at 3.7 ppm [1, 10]: 5%; Emax at 11.11 ppm [1, 11]: 8%; Emax at 33.33 ppm [1, 12]: 22%; Emax at 0.41 ppm ([2]; K6105, Streptimidone 0.41 ppm alone (CtmC 0), lower sub-table): 7%; Emax at 1.23 ppm ([2]; lower sub-table): 17%; Emax at 1.23 ppm ([2]; upper sub-table): 27%; Emax at 3.7 ppm ([2]; lower sub-table): 32%; Emax at 3.7 ppm ([2]; upper sub-table): 39%; Emax at 11.11 ppm ([2]; lower sub-table): 48%; Emax at 11.11 ppm ([2]; upper sub-table): 59%; Emax at 33.33 ppm ([2]; lower sub-table): 67%; Emax at 33.33 ppm ([2]; upper sub-table): 81%; Emax at 100 ppm ([2]; K6105, Streptimidone 100 ppm alone (CtmC 0), lower sub-table): 83%; Emax at 0.14 ppm [3, 13]: 0%; Emax at 0.41 ppm [3, 8]: 0%; Emax at 1.23 ppm [3, 9]: 0%; Emax at 3.7 ppm [3, 10]: 3%; Emax at 11.11 ppm [3, 11]: 8%; Emax at 33.33 ppm [3, 12]: 18%; Emax at 100 ppm [3, 14]: 44%; Emax at 0.41 ppm ([4]; K6420, Streptimidone 0.41 ppm alone (CtmC 0)): 7%; Emax at 1.23 ppm ([4]; K6420, Streptimidone 1.23 ppm alone (CtmC 0)): 17%; Emax at 3.7 ppm ([4]; K6420, Streptimidone 3.70 ppm alone (CtmC 0)): 32%; Emax at 11.11 ppm ([4]; K6420, Streptimidone 11.11 ppm alone (CtmC 0)): 48%; Emax at 33.33 ppm ([4]; K6420, Streptimidone 33.33 ppm alone (CtmC 0)): 67%; Emax at 100 ppm ([4]; K6420, Streptimidone 100 ppm alone (CtmC 0)): 83%; Emax at 33.33 ppm [5]: 50%; Emax at 100 ppm [5]: 63%; Emax at 0.14 ppm [6, 13]: 8%; Emax at 0.41 ppm [6, 8]: 16%; Emax at 1.23 ppm [6, 9]: 14%; Emax at 3.7 ppm [6, 10]: 16%; Emax at 11.11 ppm [6, 11]: 16%; Emax at 33.33 ppm [6, 12]: 30%; Emax at 100 ppm [6, 14]: 47%; Emax at 0.14 ppm [7, 13]: 10%; Emax at 0.41 ppm [7, 8]: 21%; Emax at 1.23 ppm [7, 9]: 13%; Emax at 3.7 ppm [7, 10]: 18%; Emax at 11.11 ppm [7, 11]: 18%; Emax at 33.33 ppm [7, 12]: 26%; Emax at 100 ppm [7, 14]: 53%
